Assay results published in PubChem BioAssay (NCI).
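Interpolation was linear, between the two tested concentrations surrounding the appropriate level; five concentrations were tested over 48 hours in 96-well plates. GI50 is the concentration that inhibits growth by half. TGI: total growth inhibition.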

Tests used:
Experiment in all cases: DTP human tumour cell line panel, 48 h
OVCAR-5 ovarian = test system: OVCAR-5 ovarian
IGROV1 ovarian = test system: IGROV1 ovarian
786-0 renal = test system: 786-0 renal
HCT-15 colon = test system: HCT-15 colon
NCI/ADR-RES ovarian = test system: NCI/ADR-RES ovarian
OVCAR-8 ovarian = test system: OVCAR-8 ovarian
HL-60(TB) leukemia = test system: HL-60(TB) leukemia
CAKI-1 renal = test system: CAKI-1 renal
UACC-257 melanoma = test system: UACC-257 melanoma
EKVX NSCLC = test system: EKVX NSCLC

| SMILES | GI50 (OVCAR-5 ovarian) [µM] | TGI (OVCAR-5 ovarian) [µM] | GI50 (IGROV1 ovarian) [nM] | TGI (IGROV1 ovarian) [µM] | GI50 (786-0 renal) [µM] | TGI (786-0 renal) [µM] | GI50 (HCT-15 colon) [nM] | TGI (HCT-15 colon) [µM] | GI50 (NCI/ADR-RES ovarian) [nM] | TGI (NCI/ADR-RES ovarian) [µM] | GI50 (OVCAR-8 ovarian) [nM] | TGI (OVCAR-8 ovarian) [µM] | GI50 (HL-60(TB) leukemia) [nM] | TGI (HL-60(TB) leukemia) [µM] | GI50 (CAKI-1 renal) [µM] | TGI (CAKI-1 renal) [µM] | GI50 (UACC-257 melanoma) [nM] | TGI (UACC-257 melanoma) [µM] | TGI (EKVX NSCLC) [µM] |
| --- | --- | --- | --- | --- | --- | --- | --- | --- | --- | --- | --- | --- | --- | --- | --- | --- | --- | --- | --- |
| NCCSC(c1ccccc1)(c1ccccc1)c1ccccc1 | 1.92 | 6.95 | 1250 | 8.32 | 1.22 | 12.1 | 409 | 1.75 | 1860 | 5.71 | 989 | 7 | 879 | 3.03 | 3.51 | 16.1 | 1130 | 2.68 |  |
| Cc1ccc(Sc2ccccc2N)cc1 |  | > 100 |  | > 100 |  | > 100 |  | > 100 |  |  |  | > 100 |  | 49.6 |  | 67 |  | > 100 | > 100 |
| CCCCCCCCCCOC(=O)NCCC |  | 93.9 |  | > 100 |  | > 100 |  | 48.4 |  |  |  | > 100 |  | 32.7 |  | > 100 |  | 92.8 | 67.7 |
| CC(=O)OCC1OC(n2ncc(=O)[nH]c2=O)C(OC(C)=O)C1OC(C)=O (stereo not given) |  | > 100 |  | > 100 |  | > 100 |  | > 100 |  | > 100 |  | > 100 |  |  |  | > 100 |  |  |  |
| COc1cc(/C=C/C(=O)c2c(-c3ccc(F)cc3)nc3sc(C)nn23)cc(OC)c1OC | 3.46 | 9.92 | 2690 | 6.71 | 3.31 | 10.6 | 2000 | 5.46 | 2570 | 9.91 | 2480 | 12.9 | 2440 | 6.17 | 3.27 | 18.2 | 4180 | 16.5 |  |
| COc1cccc(C2SCc3nc4ccccc4n32)c1 (stereo not given) |  | > 100 |  | > 100 |  | > 100 |  | > 100 |  |  |  | > 100 |  | > 100 |  | > 100 |  | > 100 | > 100 |
| O=C(O)CN(c1ccc(F)cc1)S(=O)(=O)c1ccccc1 |  | > 100 |  | > 100 |  | > 100 |  | > 100 |  |  |  | > 100 |  | > 100 |  | > 100 |  | > 100 | > 100 |
| O=[N+]([O-])c1ccc2c(c1)C(c1ccccc1Cl)=Nc1c(n[nH]c1-c1cccnc1)N2 | > 25 | > 25 | > 25000 | > 25 | > 25 | > 25 | > 25000 | > 25 | > 25000 | > 25 | > 25000 | > 25 | > 25000 | > 25 | > 25 | > 25 | > 25000 | > 25 |  |
| COc1cc(C2CC(=O)Nc3c2c(C)nn3-c2nc3ccccc3[nH]2)cc(OC)c1O (stereo not given) | 11.6 | 30.4 | 2820 | 7.63 | 3.01 | 9.39 | 3690 | > 100 | 7810 | > 78.2 | 3400 | > 32.1 | 3050 | 16.8 | 2.36 | 5.44 | 2980 | > 24.5 |  |
